From the supplement of paper PMC3493320 come the findings set out here.

Values joined by “and” are separate entries in the source; they are usually repeats but may differ in a detail not shown here. Equal entries are not always repeated.

Assay [1] has as its system NCI-H295R. Description: maximal response (efficacy) relative to DMSO (0%) and doxorubicin (-100%); higher = less growth inhibition. The following applies: 48 h.
Assay [2] deals with NCI-H295R. Put plainly: IC50 (antiproliferative, ATP content). The following applies: 48 h.

Broadly, the IC50 is the midpoint of a concentration-inhibition curve.

Turning to `Cc1cc(CC(C)CC(C)(C)C)n(O)c(=O)c1.NCCO` (stereo not given), the maximal response in the assay with NCI-H295R [1] was -96.2%. This molecule had an IC50 in the assay on NCI-H295R [2] of 23.7 µM.

As for `S=c1[nH]cnc2[nH]cnc12`, in the assay with NCI-H295R [1], the maximal response was -71.8%. Moreover, in the assay with NCI-H295R [2], the IC50 is 2.37 µM.

Turning to `C=CCNC1=C2C[C@@H](C)C[C@H](OC)[C@H](O)[C@@H](C)/C=C(\C)[C@H](OC(N)=O)[C@@H](OC)/C=C\C=C(/C)C(=O)NC(=CC1=O)C2=O`, the maximal response with NCI-H295R [1] was -105%. The same molecule returned an IC50 with NCI-H295R [2] of 8.41 µM.

For the molecule `CCCCCCCCCCCCOCCOCCOCCOCCOCCOCCOCCOCCOCCO`, in the assay on NCI-H295R [1], the maximal response is -147%. Moreover, the 50% inhibitory concentration (IC50) with NCI-H295R [2] was found to be 21.1 µM.

In the case of `N=C(N)NN=C(/C=C/c1ccc([N+](=O)[O-])o1)/C=C/c1ccc([N+](=O)[O-])o1`, in the assay on NCI-H295R [1], the maximal response was -124%. Moreover, the IC50 in the assay with NCI-H295R [2] was found to be 5.31 µM.

With `CC(=O)[C@]1(O)Cc2c(O)c3c(c(O)c2[C@@H](O[C@H]2C[C@H](N)[C@H](O)[C@H](C)O2)C1)C(=O)c1c(O)cccc1C3=O`, the maximal response in the assay on NCI-H295R [1] is -123% and -125%. Besides, the IC50 in the assay on NCI-H295R [2] is 1.19 µM and 1.88 µM.

Regarding `[Cl-].[Cl-].[Hg+2]`, in the assay with NCI-H295R [1], the maximal response is -127%. This molecule showed an IC50 with NCI-H295R [2] of 11.9 µM.

With `CCc1nc(N)nc(N)c1-c1ccc(Cl)cc1`, the maximal response with NCI-H295R [1] was -81.4%. This molecule also registered an IC50 in the assay on NCI-H295R [2] of 0.75 µM.

Regarding `C[CH2][Hg][S]c1ccccc1C(=O)[O-].[Na+]`, in the assay on NCI-H295R [1], the maximal response is -124%. Further, in the assay on NCI-H295R [2], the IC50 turned out to be 2.66 µM.

For the molecule `CC[C@@H](C(=O)[C@@H](C)[C@@H](O)[C@H](C)CCc1ccc(C)c(O)c1C(=O)[O-])[C@H]1O[C@](CC)([C@H]2CC[C@](O)(CC)[C@H](C)O2)C[C@@H]1C.[Na+]`, the maximal response in the assay on NCI-H295R [1] is -159%. This molecule came in with an IC50 with NCI-H295R [2] of 23.7 µM.

On to `Oc1cc[c]([Hg][Cl])cc1`, for which, in the assay with NCI-H295R [1], the maximal response is -130%. The molecule also yielded an IC50 in the assay on NCI-H295R [2] of 2.66 µM.

Take `C=C1/C(=C\C=C2/CCC[C@]3(C)[C@@H]([C@H](C)CCCC(C)C)CC[C@@H]23)C[C@@H](O)C[C@@H]1O`: the maximal response in the assay with NCI-H295R [1] is -142%. Further, the IC50 in the assay on NCI-H295R [2] was found to be 23.7 µM.

Regarding `Cn1cnc([N+](=O)[O-])c1Sc1ncnc2nc[nH]c12`, the maximal response in the assay on NCI-H295R [1] is -82.1%. For the same molecule, the IC50 in the assay with NCI-H295R [2] was found to be 11.9 µM.

Consider `CCN1/C(=C\C=C\c2ccc3ccccc3[n+]2CC)C=Cc2ccccc21.[I-]`, for which the maximal response in the assay with NCI-H295R [1] is -134%. Also, the IC50 in the assay on NCI-H295R [2] worked out at 23.7 µM.

Regarding `COc1ccc(CN2CCN(C(c3ccc(F)cc3)c3ccc(F)cc3)CC2)c(OC)c1OC`, the maximal response in the assay with NCI-H295R [1] is -95.1%. Further, the IC50 with NCI-H295R [2] worked out at 21.1 µM.

Consider `O=[C@@]([C@@H]4C3=CC(C(C1=CC=CC(O)=C12)=O)=C(C(O)=C3[C@@H](O[C@@H]7O[C@H]([C@H]([C@@H](N(C)C)C7)O[C@H](O6)C[C@@H]([C@@H]([C@@H]6C)O[C@H](O5)CCC([C@@H]5C)=O)O)C)C[C@](CC)4O)C2=O)OC.Cl`, for which, in the assay with NCI-H295R [1], the maximal response was -122%. The molecule further returned an IC50 with NCI-H295R [2] of 0.944 µM.

`COc1cccc2c1C(=O)c1c(O)c3c(c(O)c1C2=O)C[C@@](O)(C(C)=O)C[C@@H]3O[C@H]1C[C@H](N)[C@H](O)[C@H](C)O1`: the maximal response in the assay on NCI-H295R [1] was -126%. The molecule also came in with an IC50 in the assay on NCI-H295R [2] of 10.6 µM.

For the molecule `COC(=O)C[C@](O)(CCCC(C)(C)O)C(=O)O[C@@H]1C(OC)=C[C@]23CCCN2CCc2cc4c(cc2[C@H]13)OCO4`, in the assay with NCI-H295R [1], the maximal response is -125%. The IC50 with NCI-H295R [2] came out at 0.211 µM.

With `COc1cc2c(cc1O)CCN[C@]21CS[C@@H]2c3c(OC(C)=O)c(C)c4c(c3[C@H](COC1=O)N1[C@@H]2[C@H]2c3c(cc(C)c(OC)c3O)C[C@@H]([C@@H]1O)N2C)OCO4`, the maximal response in the assay on NCI-H295R [1] is -117%. The IC50 in the assay on NCI-H295R [2] was 0.0094 µM.

Regarding `CCCCCCCC/C=C\CCCCCCCC(=O)NCc1ccc(O)c(OC)c1`, the maximal response in the assay on NCI-H295R [1] was -122%. This molecule displayed an IC50 in the assay on NCI-H295R [2] of 8.41 µM.

Turning to `CO[C@@H]1[C@H](C)O[C@@H](O[C@H]2C[C@@H](Oc3cc4cc5c(c(O)c4c(O)c3C)C(=O)[C@H](O[C@@H]3C[C@H](O[C@@H]4C[C@H](O[C@@H]6C[C@@](C)(O)[C@H](OC(C)=O)[C@@H](C)O6)[C@@H](O)[C@H](C)O4)[C@@H](O)[C@H](C)O3)[C@@H]([C@@H](OC)C(=O)[C@H](O)[C@H](C)O)C5)O[C@@H](C)[C@H]2OC(C)=O)C[C@@H]1O`, the maximal response in the assay with NCI-H295R [1] is -111%. The molecule also displayed an IC50 in the assay on NCI-H295R [2] of 1.06 µM.

Consider `COc1cc(NCc2ccc3nc(N)nc(N)c3c2C)cc(OC)c1OC.Cl.Cl.Cl`, for which, in the assay with NCI-H295R [1], the maximal response was -80.4%. In the assay on NCI-H295R [2], the IC50 was 0.0133 µM.

Consider `COc1cc(C(=O)NS(=O)(=O)c2ccccc2C)ccc1Cc1cn(C)c2ccc(NC(=O)OC3CCCC3)cc12`, for which the maximal response in the assay with NCI-H295R [1] is -134%. This molecule also registered an IC50 in the assay with NCI-H295R [2] of 21.1 µM.

Consider `C=C1/C(=C\C=C2/CCC[C@]3(C)[C@@H]([C@H](C)CCCC(C)(C)O)CC[C@@H]23)C[C@@H](O)C[C@@H]1O`, for which, in the assay with NCI-H295R [1], the maximal response was -140%. This molecule showed an IC50 in the assay on NCI-H295R [2] of 18.8 µM.

Consider `COc1cc2c(cc1OC)-c1c/c(=N\c3c(C)cc(C)cc3C)n(C)c(=O)n1CC2.Cl`, for which, in the assay on NCI-H295R [1], the maximal response was -149%. Also, in the assay on NCI-H295R [2], the IC50 was determined as 21.1 µM.
